Experimental data as given in US6020342A, “Fused imidazo[1,2-A]pyridines” (Shinnippon Pharmaceutical, Inc., priority 1995, dated 2000).

Legend:
gastric acid secretion = experiment: Inhibition of Gastric Acid Secretion Observed Under Stomach Perfusion Method; type: in vivo, male Sprague Dawrey rats; details: Rattus norvegicus, ip, 1 h; rats, histamine i.v. 8 mg/kg/hr, inhibition one hour after administration (1-10 mg/kg, "intrapenetorially"); read-out: ID50 (dose showing 50% inhibition of acid secretion)
Method: Inhibition of Gastric Acid Secretion Observed Under Stomach Perfusion Method
Male Sprague Dawrey rats (6-7weeks) fasted for 24 hours were used (water ad libitum). The rats were anesthetized by intraperitoneal administration of 1.25 g/kg of urethane. The abdomen was incised, and gastral cavity was perfused with saline during experiment. The perfusate was titrated by 10 mM sodium hydroxide up to pH5.5 using an autotitrator in accordance with Stat-method. Gastric acid secretion was stimulated by intravenous administration of histamine dihydrochloride (8 mg/kg/hr). Two hours after histamine stimulation, a test compound 1-10 mg/kg) was administered intrapenetorially. The test compound was mixed with small amount of polysorbate-80, and the mixture was suspended in saline. The test compound was evaluated using ID50 (dose showing 50% inhibition of acid secretion) which was calculated based on inhibition of the acid secretion observed one hour after administration of the compound.

H^+ /K^+ -ATPase = target: T1, H^+ /K^+ -ATPase (Sus scrofa, UniProt P19156); experiment: Inhibitory Action on H^+ /K^+ -ATPase Activity; type: biochemical; details: microsome fraction from porcine gastric mucosa, pH7.4, 37° C., 30 min preincubation, 15 min reaction
T1 construct: a microsome fraction prepared from porcine gastric mucosa was used as a standard enzyme; from tissue; host or cells: porcine gastric mucosa, microsome fraction
Method: Inhibitory Action on H^+ /K^+ -ATPase Activity
According to the method of Hongo et al. [The Japanese Journal of Pharmacology, 52, p295, (1990)], a microsome fraction prepared from porcine gastric mucosa was used as a standard enzyme. The standard enzyme (10-20lig protein) and the test compound (0.1-100 μM) dissolved in dimethylsulfoxide was incubated at 37° C. for 30 minutes in the 50 mM Tris-acetate buffer (pH7.4, containing 2 mM magnesium chloride, 5 mM potassium chloride). The enzyme reaction was started by adding adenosinetriphosphate (ATP). Tris at the final concentration of 2 mM, and the reaction was kept at 37° C. for 15 minutes. The reaction was stopped by adding chilled 10% trichloroacetic acid. Inorganic phosphate released during the reaction was calorimetrically determined according to the method of Fiske-Subbarow [The Journal of Biological Chemistry, 66, p375, (1925)]. H^+ /K^+ -ATPase activity was determined by the difference of the enzyme activities under the conditions with or without potassium chloride. The inhibitory activities of test compounds were determined as the 50% inhibitory concentration (IC50 value) from reaction-concentration curve, and the results are shown in Table 3.

T1 sequence (P19156 2-1034 limits assumed): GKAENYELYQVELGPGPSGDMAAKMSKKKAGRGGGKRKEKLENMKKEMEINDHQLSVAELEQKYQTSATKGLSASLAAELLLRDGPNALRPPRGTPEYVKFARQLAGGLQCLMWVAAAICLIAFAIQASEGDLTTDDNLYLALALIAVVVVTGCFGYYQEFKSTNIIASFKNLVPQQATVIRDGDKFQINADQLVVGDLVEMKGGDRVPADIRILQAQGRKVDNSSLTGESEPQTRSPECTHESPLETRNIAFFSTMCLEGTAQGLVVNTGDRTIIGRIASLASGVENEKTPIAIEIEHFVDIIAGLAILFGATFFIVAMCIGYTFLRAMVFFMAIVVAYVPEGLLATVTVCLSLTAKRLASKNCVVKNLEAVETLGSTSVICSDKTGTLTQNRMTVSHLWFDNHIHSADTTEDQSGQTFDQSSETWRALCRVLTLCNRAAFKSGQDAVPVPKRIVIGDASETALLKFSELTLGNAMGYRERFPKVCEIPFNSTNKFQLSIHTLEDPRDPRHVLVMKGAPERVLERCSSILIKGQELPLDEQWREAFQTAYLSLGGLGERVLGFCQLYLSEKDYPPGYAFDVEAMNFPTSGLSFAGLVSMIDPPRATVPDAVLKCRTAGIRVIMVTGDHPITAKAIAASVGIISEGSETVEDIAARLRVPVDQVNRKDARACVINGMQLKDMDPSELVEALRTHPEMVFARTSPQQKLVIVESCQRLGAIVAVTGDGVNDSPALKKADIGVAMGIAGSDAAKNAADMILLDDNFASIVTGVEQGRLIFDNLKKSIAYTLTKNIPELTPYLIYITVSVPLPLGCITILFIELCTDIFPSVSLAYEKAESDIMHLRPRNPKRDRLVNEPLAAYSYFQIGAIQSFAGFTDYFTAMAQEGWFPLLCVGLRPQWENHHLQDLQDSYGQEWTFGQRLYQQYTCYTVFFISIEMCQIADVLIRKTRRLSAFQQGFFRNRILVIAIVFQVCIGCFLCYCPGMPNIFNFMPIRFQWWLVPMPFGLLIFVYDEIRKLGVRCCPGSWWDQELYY
T1 sequence (P18434 whole entry partner): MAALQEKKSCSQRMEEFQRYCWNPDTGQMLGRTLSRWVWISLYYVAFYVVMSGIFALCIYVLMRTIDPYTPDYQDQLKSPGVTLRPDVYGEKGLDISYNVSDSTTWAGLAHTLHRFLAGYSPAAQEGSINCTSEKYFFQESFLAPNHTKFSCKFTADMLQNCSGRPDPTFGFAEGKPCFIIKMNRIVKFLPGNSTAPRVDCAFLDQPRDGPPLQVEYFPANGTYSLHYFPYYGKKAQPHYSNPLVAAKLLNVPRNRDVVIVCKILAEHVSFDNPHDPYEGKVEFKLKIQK

Row | Compound | IC50 (H^+ /K^+ -ATPase) | ED50 (gastric acid secretion)
1 | Cc1sccc1-c1nc2c3ccsc3cc(C)n2c1N [Compound 255, 3-Amino-5-methyl-2-(2-methyl-3-thienyl)imidazo[1,2-a]thieno[3,2-c]pyridine] | 6.6 µM | 1 mg/kg
2 | COc1ccc2c(c1)-c1nc(-c3ccccc3C)c(N)n1CC2 [Compound 103, 3-Amino-9-methoxy-2-(2-methylphenyl)-5,6-dihydroimidazo[2,1-a]isoquinoline] |  | 7.4 mg/kg
3 | CC(=O)N(Cc1ccc(C)cc1)c1c(-c2ccccc2C)nc2c3ccccc3ccn12 [Compound 151, 3-[N-Acetyl-N-(4-methylbenzyl)amino]-2-(2-methylphenyl)imidazo[2,1-a]isoquinoline] | 7.8 µM | 
4 | COc1ccc2cc(C)n3c(N)c(-c4ccccc4C)nc3c2c1 [Compound 56, 3-Amino-9-methoxy-5-methyl-2-(2-methylphenyl)imidazo[2,1-a]isoquinoline] |  | 6.5 mg/kg
5 | Cc1ccccc1-c1nc2c3sccc3cc(C)n2c1N [Compound 311, 3-Amino-5-methyl-2-(2-methylphenyl)imidazo[1,2-a]thieno[2,3-c]pyridine] | 8 µM | 
6 | Cc1cc(O)ccc1-c1nc2n(c1N)CCc1ccccc1-2 [Compound 107, 3-Amino-2-(4-hydroxy-2-methylphenyl)-5,6-dihydroimidazo[2,1-a]isoquinoline] | 33 µM | 
7 | CCNc1c(-c2ccccc2C)nc2c3ccsc3ccn12 [Compound 340, 3-Ethylamino-2-(2-methylphenyl)imidazo[1,2-a]thieno[3,2-c]pyridine] | 33 µM | 4.9 mg/kg
8 | CCCN(CC)c1c(-c2ccccc2C)nc2c3sccc3ccn12 [Compound 356, 3-(N-Ethyl-N-propylamino)-2-(2-methylphenyl)imidazo[1,2-a]thieno[2,3-c]pyridine] | 8.4 µM | 
9 | Cc1ccccc1-c1nc2c3ccsc3c(C)c(C)n2c1N [Compound 239, 3-Amino-5,6-dimethyl-2-(2-methylphenyl)imidazo[1,2-a]thieno[3,2-c]pyridine] | 26 µM | 
10 | COc1ccc(-c2cn3c(N)c(-c4ccccc4C)nc3c3ccccc23)cc1 [Compound 21, 3-Amino-6-(4-methoxyphenyl)-2-(2-methylphenyl)imidazo[2,1-a]isoquinoline] | 7.4 µM | 
11 | Cc1ccccc1-c1nc2n(c1N)C(C)(C)Cc1ccccc1-2 [Compound 104, 3-Amino-5,5-dimethyl-2-(2-methylphenyl)-5,6-dihydroimidazo[2,1-a]isoquinoline] | 12 µM | 
12 | COc1ccccc1-c1nc2c3ccsc3cc(C)n2c1N [Compound 245, 3-Amino-2-(2-methoxyphenyl)-5-methylimidazo[1,2-a]thieno[3,2-c]pyridine] | 9 µM | 
13 | Nc1c(-c2ccccc2Cl)nc2c3ccsc3ccn12 [Compound 232, 3-Amino-2-(2-chlorophenyl)imidazo[1,2-a]thieno[3,2-c]pyridine] | 17 µM | 3.2 mg/kg
14 | Cc1ccc(-c2nc3c4ccccc4ccn3c2NCCC(C)C)c(C)c1 [Compound 189, 3-Isopentylamino-2-(2,4-dimethylphenyl)imidazo[2,1-a]isoquinoline] | 6.8 µM | 
15 | Cc1ccccc1-c1nc2n(c1N)CCc1ccccc1-2 [Compound 96, 3-Amino-2-(2-methylphenyl)-5,6-dihydroimidazo[2,1-a]isoquinoline] | 17.5 µM | 8.8 mg/kg
16 | CCCc1cc2ccccc2c2nc(-c3ccccc3C)c(N)n12 [Compound 12] | 12.5 µM | 7.2 mg/kg
17 | Cc1sccc1-c1nc2c3ccccc3ccn2c1N [Compound 78, 3-Amino-2-(2-methyl-3-thienyl)imidazo[2,1-a]isoquinoline] | 17 µM | 1.6 mg/kg
18 | Cn1cccc1-c1nc2c3ccsc3ccn2c1N [Compound 275] | 24 µM | 
19 | Cc1cc2sccc2c2nc(-c3ccccc3)c(N)n12 [Compound 230, 3-Amino-5-methyl-2-phenylimidazo[1,2-a]thieno[3,2-c]pyridine] | 20 µM | 6.2 mg/kg
20 | Cc1ccccc1-c1nc2c3ccccc3ccn2c1NCc1ccc2ccccc2c1Br [Compound 195] | 8.8 µM | 
21 | Cc1ccccc1-c1nc2c3cc(OC(=O)C(C)C)ccc3ccn2c1N [Compound 43, 3-Amino-9-isobutyryloxy-2-(2-methylphenyl)imidazo[2,1-a]isoquinoline] |  | 7 mg/kg
22 | Cc1ccccc1-c1nc2c3ccn(Cc4ccccc4)c3ccn2c1N [Compound 292, 3-Amino-7-benzyl-2-(2-methylphenyl)imidazo[1,2-a]pyrrolo[3,2-c]pyridine] | 8.8 µM | 
23 | CCN(CCCl)c1c(-c2ccccc2C)nc2c3ccccc3ccn12 [Compound 202, 3-[N-(2-Chloroethyl)-N-ethylamino]-2-(2-methylphenyl)imidazo[2,1-a]isoquinoline] | 9.8 µM | 

The remaining compounds from weak to strong by IC50 (H^+ /K^+ -ATPase), led by results:

Row | IC50 (H^+ /K^+ -ATPase) | Compound | ED50 (gastric acid secretion)
24 | 5.8 µM | CCNc1c(-c2ccccc2C)nc2c3cccc(OCc4ccccc4)c3ccn12 [Compound 169, 7-Benzyloxy-3-ethylamino-2-(2-methylphenyl)imidazo[2,1-a]isoquinoline] | 
25 | 5.6 µM | Cc1cc(-c2nc3c4ccccc4ccn3c2N)c(C)s1 [Compound 83, 3-Amino-2-(2,5-dimethyl-3-thienyl)imidazo[2,1-a]isoquinoline] | 
26 | 5.2 µM | CCCCCCNc1c(-c2ccccc2C)nc2c3ccccc3ccn12 [Compound 191, 3-Hexylamino-2-(2-methylphenyl)imidazo[2,1-a]isoquinoline] | 
27 | 4.8 µM | Cc1ccccc1-c1nc2c3ccccc3c(OCc3ccccc3)cn2c1N [Compound 38, 3-Amino-6-benzyloxy-2-(2-methylphenyl)imidazo[2,1-a]isoquinoline] | 
28 | 4.7 µM | Cc1cc(Cl)ccc1-c1nc2c3ccsc3cc(C)n2c1N [Compound 248, 3-Amino-2-(4-chloro-2-methylphenyl)-5-methylimidazo[1,2-a]thieno[3,2-c]pyridine] | 
29 | 4.6 µM | CCCc1cccc2c1ccn1c(NCC)c(-c3ccccc3C)nc21 [Compound 163, 3-Ethylamino-2-(2-methylphenyl)-7-propylimidazo[2,1-a]isoquinoline] | 
30 | 4.4 µM | Cc1ccccc1-c1nc2c3ccccc3ccn2c1NC(C)c1ccccc1 (stereo not shown) [Compound 192, 2-(2-Methylphenyl)-3-[(1-phenylethyl)amino]imidazo[2,1-a]isoquinoline] | 
31 | 3.7 µM | Cc1ccccc1-c1nc2c3ccccc3c(CCC(C)C)cn2c1N [Compound 15, 3-Amino-6-isopentyl-2-(2-methylphenyl)imidazo[2,1-a]isoquinoline] | 
32 | 3.6 µM | CCN(Cc1ccc(C)cc1)c1c(-c2ccccc2C)nc2c3ccccc3ccn12 [Compound 219, 3-[N-Ethyl-N-(4-methylbenzyl)amino]-2-(2-methylphenyl)imidazo[2,1-a]isoquinoline] | 
33 | 3 µM | Cn1cccc1-c1nc2c3ccccc3ccn2c1N [Compound 94, 3-Amino-2-(1-methyl-2-pyrrolyl)imidazo[2,1-a]isoquinoline] | 5.8 mg/kg
34 | 2.9 µM | CCc1cc2sccc2c2nc(-c3ccccc3C)c(N)n12 [Compound 238, 3-Amino-5-ethyl-2-(2-methylphenyl)imidazo[1,2-a]thieno[3,2-c]pyridine] | 
35 | 2.4 µM | CCCN(CC)c1c(-c2cccc(C)c2)nc2c3ccccc3ccn12 [Compound 211, 3-(N-Ethyl-N-propylamino)-2-(3-methylphenyl)imidazo[2,1-a]isoquinoline] | 
36 | 2.3 µM | CCCN(CC)c1c(-c2ccccc2F)nc2c3ccccc3ccn12 [Compound 206, 3-(N-Ethyl-N-propylamino)-2-(2-fluorophenyl)imidazo[2,1-a]isoquinoline] | 
37 | 1.9 µM | Cc1ccccc1-c1nc2c3cc(O)ccc3ccn2c1N [Compound 22, 3-Amino-9-hydroxy-2-(2-methylphenyl)imidazo[2,1-a]isoquinoline] | 
38 | 1.9 µM | CCc1ccccc1-c1nc2c3ccccc3ccn2c1N=Cc1ccc(C)cc1 [Compound 226, 2-(2-Ethylphenyl)-3-(4-methylbenzylideneamino)imidazo[2,1-a]isoquinoline] | 
39 | 1.2 µM | Cc1cc(-c2nc3c4ccsc4ccn3c2N)c(C)s1 [Compound 264, 3-Amino-2-(2,5-dimethyl-3-thienyl)imidazo[1,2-a]thieno[3,2-c]pyridine] | 
40 | 1.2 µM | CCN(CC)c1c(-c2ccccc2C)nc2c3cccc(Br)c3ccn12 [Compound 200, 7-Bromo-3-diethylamino-2-(2-methylphenyl)imidazo[2,1-a]isoquinoline] | 
41 | 1 µM | CCN(CC)c1cccc2c1ccn1c(N)c(-c3ccccc3C)nc21 [Compound 54, 3-Amino-7-diethylamino-2-(2-methylphenyl)imidazo[2,1-a]isoquinoline] | 
